The subject of this series is HH patients. Description: Phase 2 open-label dose-finding study in hereditary hemochromatosis patients. The format is in vivo, human. The method, then:
A clinical efficacy study was conducted in HH patients. Subjects received subcutaneous Compound 25 for up to 24 weeks. Subjects were started at an initial dose of 10 mg per week subcutaneously. The dose was increased to 20 mg per week, and subsequently to 40 mg and to 80 mg per week as needed, based on tolerability and the pharmacodynamic marker TSAT. In addition, subcutaneous dosing schedules of 10 mg, 20 mg, 30, and 40 mg twice weekly (Day 1 and either Day 4 or Day 5 were tested). The majority of patients were administered doses of 20 mg per week or less. Subjects' safety and blood iron parameters (serum iron, serum ferritin, transferrin, and TSAT) were collected to monitor the pharmacodynamic effect of Compound 25. Effects on phlebotomy need and QoL data (36-Item Short Form Health Survey [SF-36], and Patient's Global Impression of Change [PGI-C]) were also be collected and tabulated.
Individual subject's dose and schedule were determined based on the pharmacodynamic (PD) marker TSAT measured at two time points following dosing: once at peak PD effect one day post dose and once at trough PD effect. […] The trough PD effect was the TSAT value measured 7 days after the Compound 25 dose (and before the next dose) for once weekly dosing or 7 days after the first dose in a week for twice weekly dosing. […] To facilitate dose escalation and the identification of a therapeutic dose, investigators assessed TSAT values on days subjects came to the clinic for any dose adjustments.
Methods: This single-arm, open-label, dose-finding phase 2 study investigated subcutaneous hepcidin mimetic (Compound 25) in patients (pts) with confirmed HH who were on documented stable phlebotomies (phl) for at least 6 months (mos) prior to treatment with a phl frequency of 0.25-1 per month. […] Endpoints included TSAT, serum iron, serum transferrin and serum ferritin, liver iron content (LIC) measured by FerriScan MRI, adverse events, and patient-reported outcomes on the Patient Global Impression of change (PGI-C) and Medical Outcome Study Questionnaire Short Form Health Survey (SF-36). […]

As to `CCCCCCCCCCCCCCCC(=O)N[C@@H](CCC(=O)NCCCC[C@@H]1NC(=O)[C@H]([C@@H](C)CC)NC(=O)[C@@H](NC(=O)[C@@H]2CCCN2C(=O)[C@H](Cc2ccccc2)NC(=O)[C@H](Cc2c[nH]cn2)NC(=O)[C@@H](NC(=O)[C@H](CC(=O)O)NC(=O)CC(C)C)[C@@H](C)O)CSSC[C@@H](C(=O)N[C@@H](CCCCN)C(N)=O)NC(=O)CNC(=O)[C@H](CCCCN)NC(=O)[C@H](CO)NC(=O)[C@H](CCCNC(=N)N)NC(=O)[C@@H]2CCCN2C(=O)[C@H](CCC(=O)O)NC(=O)[C@H](Cc2ccccc2)NC1=O)C(=O)O` [Compound 25, Isovaleric acid-DTHFPCI(K(isoGlu-Palm))FEPRSKGCK-NH2], the tolerability entry (HH patients, subcutaneous, up to 24 weeks) is recorded as “generally well tolerated”. Besides, the “treatment-related adverse events, severity” value (all treatment-related adverse events) was “CTCAE grade 1 or 2”. Further, under “human, in vivo”, the “hematological parameters (hematocrit, erythrocytes, leucocytes, platelets)” value was “no notable changes”.

For the origin of these results see patent US20240293511A1, “HEPCIDIN MIMETICS FOR TREATMENT OF HEREDITARY HEMOCHROMATOSIS” (Protagonist Therapeutics, Inc., priority 2021, published 2024).
